From US7598392B2, “2-amido-4-phenylthiazole derivatives, the preparation and the therapeutic use thereof” (sanofi-aventis, priority 2004, dated 2009)

test system: human THP-1 monocytes; test: Inhibition of chemotaxis on human THP-1 monocytes; assay type: cell-based
Description: The inhibition of chemotaxis was also measured on human THP-1 monocytes (sold by DSMZ—Germany) using a technique adapted from that described by A. Albini et al., Cancer Res., 1987, 47, 3239-3245. Under these conditions, hMCP-1 has an IC50 of 6 nM.

IC50 | Compound
6 nM | hMCP-1: "hMCP-1 (human monocyte chemotactic protein)", "belongs to the group or CC chemokines and which is a natural agonist of the CCR2b receptor"

molecular target: T1, human CCR2b receptor (Homo sapiens, UniProt P41597); test: Inhibitory activity on cells expressing the human CCR2b receptor; assay type: cell-based
T1 sequence (P41597 1-360 isoform P41597-2): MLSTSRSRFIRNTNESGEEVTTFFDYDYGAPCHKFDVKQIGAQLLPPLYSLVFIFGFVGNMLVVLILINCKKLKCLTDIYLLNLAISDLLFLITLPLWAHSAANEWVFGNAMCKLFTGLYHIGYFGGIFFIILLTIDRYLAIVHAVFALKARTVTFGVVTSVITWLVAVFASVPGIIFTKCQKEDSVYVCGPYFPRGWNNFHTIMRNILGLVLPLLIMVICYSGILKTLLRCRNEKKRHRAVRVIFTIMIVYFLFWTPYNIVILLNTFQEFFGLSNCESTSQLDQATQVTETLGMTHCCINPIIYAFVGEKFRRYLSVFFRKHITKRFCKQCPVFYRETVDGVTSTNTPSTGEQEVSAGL
Description: The inhibitory activity of the compounds according to the invention on cells expressing the human CCR2b receptor was measured.

IC50 | Compound
25 nM | COc1ccc(C2CCCCC2)cc1-c1csc(NC(=O)C2CCCN(C(=O)c3cccc(C#N)c3)C2)n1 (stereo not drawn) [Compound 20]
0.57 nM | hMCP-1: "hMCP-1 (human monocyte chemotactic protein)", "belongs to the group or CC chemokines and which is a natural agonist of the CCR2b receptor"
290 nM | CCCOc1ccc(OC)c(-c2csc(NC(=O)C3CCCN(C(=O)c4cc([N+](=O)[O-])cc([N+](=O)[O-])c4)C3)n2)c1 (stereo not drawn) [Compound 1]
5 nM | COc1ccc(C2CCCCC2)cc1-c1csc(NC(=O)C2CCCN(C(=O)c3ccncn3)C2)n1 (stereo not drawn) [Compound 107, 1-(pyrimidine-4-carbonyl)piperidine-3-carboxylic acid [4-(5-cyclohexyl-2-methoxyphenyl)thiazol-2-yl]amide]
44 nM | COc1ccc(C2CCCCC2)cc1-c1csc(NC(=O)C2CCCN(C(=O)c3ccoc3C)C2)n1 (stereo not drawn) [Compound 31]
